Experimental data taken from PubChem BioAssay AID2060901 (Molecular Pharmacology Branch, DTP, NCI, 2025).
Values belong to the compound of their own block, whether it stands above or below them.

Test system: 422866-222-R5-J1-PDC complex spheroids viability
Assay: Anticancer human tumor 422866-222-R5-J1-PDC patient-derived pancreatic adenocarcinoma cell line growth inhibition [RAS]
Settings: for IC50: curve of first compound; for viability, T/C: stronger effect = lower value
In short: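 Multi-cell-type spheroids: tumor cells plus HUVEC endothelial cells and mesenchymal stem cells. RAS-pathway inhibitors were combined with targeted agents, each dosed in half-log steps down from clinical Cmax, or from 10 microM when Cmax was unknown.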

[1] = second compound 0.000949 µM, first compound 0.0316 µM
[2] = second compound 0.000949 µM, first compound 0.1 µM
[3] = second compound 0.000949 µM, first compound 0.316 µM
[4] = second compound 0.000949 µM, first compound 1 µM
[5] = second compound 0.000949 µM, first compound 3.16 µM
[6] = second compound 0.000949 µM, first compound 10 µM
[7] = second compound 0.003 µM, first compound 0.0316 µM
[8] = second compound 0.003 µM, first compound 0.1 µM
[9] = second compound 0.003 µM, first compound 0.316 µM
[10] = second compound 0.003 µM, first compound 1 µM
[11] = second compound 0.003 µM, first compound 3.16 µM
[12] = second compound 0.003 µM, first compound 10 µM
[13] = second compound 0.00949 µM, first compound 0.0316 µM
[14] = second compound 0.00949 µM, first compound 0.1 µM
[15] = second compound 0.00949 µM, first compound 0.316 µM
[16] = second compound 0.00949 µM, first compound 1 µM
[17] = second compound 0.00949 µM, first compound 3.16 µM
[18] = second compound 0.00949 µM, first compound 10 µM
[19] = second compound 0.03 µM, first compound 0.0316 µM
[20] = second compound 0.03 µM, first compound 0.1 µM
[21] = second compound 0.03 µM, first compound 0.316 µM
[22] = second compound 0.03 µM, first compound 1 µM
[23] = second compound 0.03 µM, first compound 3.16 µM
[24] = second compound 0.03 µM, first compound 10 µM
[25] = second compound 0.0949 µM, first compound 0.0316 µM
[26] = second compound 0.0949 µM, first compound 0.1 µM
[27] = second compound 0.0949 µM, first compound 0.316 µM
[28] = second compound 0.0949 µM, first compound 1 µM
[29] = second compound 0.0949 µM, first compound 3.16 µM
[30] = second compound 0.0949 µM, first compound 10 µM
[31] = second compound 0.3 µM, first compound 0.0316 µM
[32] = second compound 0.3 µM, first compound 0.1 µM
[33] = second compound 0.3 µM, first compound 0.316 µM
[34] = second compound 0.3 µM, first compound 1 µM
[35] = second compound 0.3 µM, first compound 3.16 µM
[36] = second compound 0.3 µM, first compound 10 µM
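Also: spheroids exposed to compounds for 7 days.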
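For viability, T/C in this document: 100% = DMSO vehicle control viability.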

IC50 (second compound 0.000949 µM): < 31.6 nM
IC50 (second compound 0.003 µM): < 31.6 nM
IC50 (second compound 0.00949 µM): < 31.6 nM
IC50 (second compound 0.03 µM): < 31.6 nM
IC50 (second compound 0.0949 µM): < 31.6 nM
IC50 (second compound 0.3 µM): < 31.6 nM
Compound: CC1(O)CCCC1n1c(=O)c(C(F)F)cc2cnc(NC3CCN(S(C)(=O)=O)CC3)nc21 (centres undefined) + CCn1c(-c2cccnc2C(C)OC)c2c3cc(ccc31)N1CCOC(CC(NC(=O)C(C(C)C)N(C)C(=O)C3(F)CCN(C(=O)C#CC(C)(C)N(C)C)CC3)C(=O)N3CCCC(N3)C(=O)OCC(C)(C)C2)C1
viability, T/C [1]: 28.6%
viability, T/C [2]: 30.5%
viability, T/C [3]: 29.6%
viability, T/C [4]: 31.9%
viability, T/C [5]: 40.8%
viability, T/C [6]: 38.2%
viability, T/C [7]: 24.8%
viability, T/C [8]: 34.6%
viability, T/C [9]: 24.7%
viability, T/C [10]: 27.1%
viability, T/C [11]: 29.8%
viability, T/C [12]: 38.2%
viability, T/C [13]: 25.3%
viability, T/C [14]: 24.8%
viability, T/C [15]: 25.2%
viability, T/C [16]: 26.8%
viability, T/C [17]: 34.3%
viability, T/C [18]: 45.2%
viability, T/C [19]: 22.9%
viability, T/C [20]: 20.5%
viability, T/C [21]: 23.5%
viability, T/C [22]: 23%
viability, T/C [23]: 29.7%
viability, T/C [24]: 45.4%
viability, T/C [25]: 21.1%
viability, T/C [26]: 20.5%
viability, T/C [27]: 22.4%
viability, T/C [28]: 22%
viability, T/C [29]: 29.9%
viability, T/C [30]: 43.5%
viability, T/C [31]: 15.5%
viability, T/C [32]: 19.8%
viability, T/C [33]: 19%
viability, T/C [34]: 20.5%
viability, T/C [35]: 24.9%
viability, T/C [36]: 47.3%

IC50 (second compound 0.000949 µM): < 31.6 nM
IC50 (second compound 0.003 µM): < 31.6 nM
IC50 (second compound 0.00949 µM): < 31.6 nM
IC50 (second compound 0.03 µM): < 31.6 nM
IC50 (second compound 0.0949 µM): < 31.6 nM
IC50 (second compound 0.3 µM): < 31.6 nM
Compound: CCC(CC)c1cc(NC2CCC(N)C2)n2nccc2n1 (centres undefined) + CCn1c(-c2cccnc2C(C)OC)c2c3cc(ccc31)N1CCOC(CC(NC(=O)C(C(C)C)N(C)C(=O)C3(F)CCN(C(=O)C#CC(C)(C)N(C)C)CC3)C(=O)N3CCCC(N3)C(=O)OCC(C)(C)C2)C1
viability, T/C [1]: 28.4%
viability, T/C [2]: 27.2%
viability, T/C [3]: 29.5%
viability, T/C [4]: 32.3%
viability, T/C [5]: 13.3%
viability, T/C [6]: 46.4%
viability, T/C [7]: 27.7%
viability, T/C [8]: 22.5%
viability, T/C [9]: 28.1%
viability, T/C [10]: 28.2%
viability, T/C [11]: 12.1%
viability, T/C [12]: 44.5%
viability, T/C [13]: 23.8%
viability, T/C [14]: 24.4%
viability, T/C [15]: 23.8%
viability, T/C [16]: 29.6%
viability, T/C [17]: 14.5%
viability, T/C [18]: 43.7%
viability, T/C [19]: 21.2%
viability, T/C [20]: 22.1%
viability, T/C [21]: 22.8%
viability, T/C [22]: 25.4%
viability, T/C [23]: 12%
viability, T/C [24]: 42%
viability, T/C [25]: 20.7%
viability, T/C [26]: 15.8%
viability, T/C [27]: 22.4%
viability, T/C [28]: 24.5%
viability, T/C [29]: 11.7%
viability, T/C [30]: 45.5%
viability, T/C [31]: 15.6%
viability, T/C [32]: 20.1%
viability, T/C [33]: 20.7%
viability, T/C [34]: 24.1%
viability, T/C [35]: 12.5%
viability, T/C [36]: 48.7%
